Data taken from patent US20240216366A1, “PHARMACEUTICAL COMPOSITION COMPRISING A DIPHENYLPYRAZINE DERIVATIVE” (ACTELION PHARMACEUTICALS LTD, priority 2021, published 2024).
Structures can show the parent of a compound that is named as a salt.

Key:
[1] = Feasibility pK rat study of aqueous micro-suspensions (LAI feasibility); type: in vivo; details: IM, 50 mg/kg; for long-acting release profile: 125 mg/mL micro-suspension pH 5
Experimental: For this study, aqueous micro-suspensions of Selexipag, {4-[(5,6-diphenylpyrazin-2-yl)(propan-2-yl)amino]butoxy}acetic acid and calcium; {4-[(5,6-diphenylpyrazin-2-yl)(propan-2-yl)amino]butoxy}acetate were prepared. An overview of the design of the study can be found in Table 1.
Release profiles and mean AUC of the different formulations are depicted in FIG. 1.

[2] = tested on: patients with pulmonary arterial hypertension; details: phase III clinical trial, versus placebo; cited from earlier work
[3] = Assay/purity of gamma-irradiated drug substance (UPLC); type: physicochemical
Experimental: To evaluate if gamma-irradiation could be used to produce sterile product, different irradiation grades were tested on calcium; {4-[(5,6-diphenylpyrazin-2-yl)(propan-2-yl)amino]butoxy}acetate. In this study, calcium; {4-[(5,6-diphenylpyrazin-2-yl)(propan-2-yl)amino]butoxy}acetate (“COMPOUND”) was irradiated with three different grades (i.e. 5, 25 and 40 kGy). Each irradiation grade was applied on two different COMPOUND vials. One of the two vials for each grade was flushed with nitrogen for 10 seconds. One reference vial containing non-irradiated COMPOUND was included in the assay/purity analysis. All samples were analyzed immediately after irradiation (Table 15) and re-analyzed after 3 months of storage at room temperature.
A second study was conducted on calcium: {4-[(5,6-diphenylpyrazin-2-yl)(propan-2-yl)amino]butoxy}acetate where three different irradiation grades were applied (i.e 5, 25 and 40 kGy).
Analytical Method used: The assay and the impurities of calcium salt of selexipag metabolite before (ref) and after gamma irradiation were analysed using reversed phase chromatography. Sample preparation was done by weighing 50 mg of sample in a 500 mL flask. Approximately 100 mL pH7 phosphate buffer:ACN (50:50) was added whereafter the flask was shaken mechanically for at least 30 minutes until complete dissolution. Dilute to volume with pH7 phosphate buffer:ACN (50:50). The resulting solution was diluted 5× by pipetting 5 mL into a 25 mL flask and diluting with the same dilution solvent. The reference solution is made following the same sample preparation, but using calcium salt of selexipag metabolite (“API”).
Analysis was performed using a Waters UPLC H-Class equipped with DAD detector, column manager and auto-sampler. Separation was done on a Acquity UPLC BEH C18 (2.1×150 mm, 1.7 μm) analytical column using a column temperature of 60° C. DAD detector was set on 230 nm. A 10 mM NH4Ac:ACN:MeOH (950:38:12) solution was used as mobile phase A. A 10 mM NH4Ac:ACN:MeOH (50:710:240) solution was used as mobile phase B. A linear gradient program of 26 minutes was applied starting in which the mobile phase B increases from 5% to 100% in 20 minutes. Hereafter the concentration of mobile phase B was brought back to 5% in 1 minute followed by an equilibration time of 5 minutes. The applied flow rate is 0.30 mL/min. An injection volume of 7 μL was used for the analysis. The assay value of the sample is calculated according following formula:
%=[API peak responsesample×concref×purityref×100%]/[peak responseref×concsample]
The concentration of an impurity is calculated according following formula:
%=[Impurity peak responsesample×concref×purityref×100%]/[peak responseref×concsample]

[4] = Assay/purity of gamma-irradiated drug product (UPLC); type: physicochemical; details: gamma-irradiation 40 and 60 kGy
Text: For this reason, both gamma-irradiation and autoclavation (steam sterilization) of the final drug product need to be investigated. To evaluate the chemical stability of the final drug product during gamma-irradiation, 2 different concepts with calcium; {4-[(5,6-diphenylpyrazin-2-yl)(propan-2-yl)amino]butoxy}acetate having a particle size Dv50 of 8 micrometer were subjected to an irradiation grade of 40 kGy and 60 kGy.
Analytical Method used: The assay and the impurities of the gamma irradiated and non-gamma irradiated (ref) calcium salt of selexipag metabolite suspension (formulation) were analysed using reversed phase chromatography. Sample preparation was done by weighing 0.5 mL suspension in a 500 mL flask. Approximately 200 mL pH7 phosphate buffer:ACN (50:50) was added whereafter the flask was shaken mechanically for at least 30 minutes until complete dissolution. Dilute to volume with pH7 phosphate buffer:ACN (50:50). The resulting solution was diluted 5× by pipetting 5 mL into a 25 mL flask and diluting with the same dilution solvent. […]
Analysis was performed using a Waters UPLC H-Class equipped with DAD detector, column manager and auto-sampler. […] The assay value of the sample is calculated according following formula: […]
The concentration of an impurity is calculated according following formula: […]

[5] = Assay/purity of drug product after autoclavation (steam sterilization); type: physicochemical
Experimental: In parallel with gamma-irradiation of the final drug product (formulated calcium; {4-[(5,6-diphenylpyrazin-2-yl)(propan-2-yl)amino]butoxy}acetate having a particle size Dv50 of 8 micrometer), autoclavation (steam sterilization) was evaluated as well.
Not only the effect upon chemical stability, but upon resuspendability was evaluated as well for the process of autoclavation (steam sterilization). The tested samples of experiment 142 were evaluated for resuspendability right after autoclavation (T0) and after 14 days of storage at 5° C. Time needed for resuspendability was acceptable at both timepoints.

[6] = 5 kGy, 3 months at room temperature
[7] = 5 kGy, 3 months at room temperature, flushed with N2
[8] = 25 kGy, 3 months at room temperature
[9] = 25 kGy, 3 months at room temperature, flushed with N2
[10] = 40 kGy, 3 months at room temperature
[11] = 40 kGy, 3 months at room temperature, flushed with N2
[12] = Reference (non-irradiated), 3 months at room temperature

Structure (SMILES): CC(C)N(CCCCOCC(=O)NS(C)(=O)=O)c1cnc(-c2ccccc2)c(-c2ccccc2)n1 [Selexipag, 2-{4-[(5,6-diphenylpyrazin-2-yl)(propan-2-yl)amino]butoxy}-N-(methanesulfonyl)acetamide, reference compound]
- long-acting release profile [1]: did not demonstrate a long-acting release profile
- risk of the primary composite end point of death or a complication related to pulmonary arterial hypertension [2]: significantly lower

Structure (SMILES): CC(C)N(CCCCOCC(=O)O)c1cnc(-c2ccccc2)c(-c2ccccc2)n1 [ACT-333679, 2-(4-((5,6-diphenylpyrazin-2-yl)(isopropyl)amino)butoxy)acetic acid, reference compound]
- long-acting release profile [1]: did not demonstrate a long-acting release profile

Structure (SMILES): CC(C)N(CCCCOCC(=O)O)c1cnc(-c2ccccc2)c(-c2ccccc2)n1 [Ca-salt of ACT-333679, calcium; {4-[(5,6-diphenylpyrazin-2-yl)(propan-2-yl)amino]butoxy}acetate]
- AUC increases up until ([1]; 125 mg/mL micro-suspension): ≤ 720 h
- long-acting release profile up to ([1]; 125 mg/mL micro-suspension): up to 336 hours
- plasma concentrations ([1]; 125 mg/mL micro-suspension, FIG. 1): significant lower plasma concentrations compared to both other groups
- Assay, % COMPOUND [3, 6]: 94.0%
- Impurity, % RRT 1.16* [3, 6]: <0.05%
- Impurity, % RRT 1.32* [3, 6]: 0.06%
- Impurity, % RRT 1.34* [3, 6]: <0.05%
- Assay, % COMPOUND [3, 7]: 94.1%
- Impurity, % RRT 1.16* [3, 7]: <0.05%
- Impurity, % RRT 1.32* [3, 7]: 0.06%
- Impurity, % RRT 1.34* [3, 7]: <0.05%
- Assay, % COMPOUND ([3]; 5 kGy, T0): 95.3%
- Impurity, % RRT 1.16* ([3]; 5 kGy, T0): 0.05%
- Impurity, % RRT 1.32* ([3]; 5 kGy, T0): <0.05%
- Impurity, % RRT 1.34* ([3]; 5 kGy, T0): 0.09%
- Assay, % COMPOUND ([3]; 5 kGy, T0, flushed with N2): 94.6%
- Impurity, % RRT 1.16* ([3]; 5 kGy, T0, flushed with N2): 0.05%
- Impurity, % RRT 1.32* ([3]; 5 kGy, T0, flushed with N2): <0.05%
- Impurity, % RRT 1.34* ([3]; 5 kGy, T0, flushed with N2): 0.06%
- Assay, % COMPOUND [3, 8]: 94.2%
- Impurity, % RRT 1.16* [3, 8]: 0.07%
- Impurity, % RRT 1.32* [3, 8]: 0.12%
- Impurity, % RRT 1.34* [3, 8]: 0.06%
- Assay, % COMPOUND [3, 9]: 93.6%
- Impurity, % RRT 1.16* [3, 9]: <0.05%
- Impurity, % RRT 1.32* [3, 9]: 0.05%
- Impurity, % RRT 1.34* [3, 9]: 0.08%
- Assay, % COMPOUND ([3]; 25 kGy, T0): 95.1%
- Impurity, % RRT 1.16* ([3]; 25 kGy, T0): 0.10%
- Impurity, % RRT 1.32* ([3]; 25 kGy, T0): 0.11%
- Impurity, % RRT 1.34* ([3]; 25 kGy, T0): 0.06%
- Assay, % COMPOUND ([3]; 25 kGy, T0, flushed with N2): 95.6%
- Impurity, % RRT 1.16* ([3]; 25 kGy, T0, flushed with N2): <0.05%
- Impurity, % RRT 1.32* ([3]; 25 kGy, T0, flushed with N2): 0.13%
- Impurity, % RRT 1.34* ([3]; 25 kGy, T0, flushed with N2): 0.09%
- Assay, % COMPOUND [3, 10]: 94.3%
- Impurity, % RRT 1.16* [3, 10]: 0.08%
- Impurity, % RRT 1.32* [3, 10]: 0.15%
- Impurity, % RRT 1.34* [3, 10]: 0.10%
- Assay, % COMPOUND [3, 11]: 92.9%
- Impurity, % RRT 1.16* [3, 11]: 0.08%
- Impurity, % RRT 1.32* [3, 11]: 0.14%
- Impurity, % RRT 1.34* [3, 11]: 0.10%
- Assay, % COMPOUND ([3]; 40 kGy, T0): 94.3%
- Impurity, % RRT 1.16* ([3]; 40 kGy, T0): 0.13%
- Impurity, % RRT 1.32* ([3]; 40 kGy, T0): 0.14%
- Impurity, % RRT 1.34* ([3]; 40 kGy, T0): 0.06%
- Assay, % COMPOUND ([3]; 40 kGy, T0, flushed with N2): 94.5%
- Impurity, % RRT 1.16* ([3]; 40 kGy, T0, flushed with N2): 0.12%
- Impurity, % RRT 1.32* ([3]; 40 kGy, T0, flushed with N2): 0.15%
- Impurity, % RRT 1.34* ([3]; 40 kGy, T0, flushed with N2): 0.07%
- Assay, % COMPOUND [3, 12]: 94.4%
- Impurity, % RRT 1.16* [3, 12]: <0.05%
- Impurity, % RRT 1.32* [3, 12]: <0.05%
- Impurity, % RRT 1.34* [3, 12]: <0.05%
- Assay, % COMPOUND ([3]; Reference (non-irradiated), T0): 95.3%
- Impurity, % RRT 1.16* ([3]; Reference (non-irradiated), T0): <0.05%
- Impurity, % RRT 1.32* ([3]; Reference (non-irradiated), T0): <0.05%
- Impurity, % RRT 1.34* ([3]; Reference (non-irradiated), T0): 0.09%
- chemical stability ([3]; drug substance, gamma-irradiation 5, 25, 40 kGy): acceptable
- Assay, % COMPOUND ([3]; second study, 5 kGy): 104.4%
- Impurity, % RRT 1.15* ([3]; second study, 5 kGy): <0.05%
- Impurity, % RRT 1.16* ([3]; second study, 5 kGy): <0.05%
- Impurity, % RRT 1.32* ([3]; second study, 5 kGy): <0.05%
- Assay, % COMPOUND ([3]; second study, 25 kGy): 104.3%
- Impurity, % RRT 1.15* ([3]; second study, 25 kGy): 0.06%
- Impurity, % RRT 1.16* ([3]; second study, 25 kGy): 0.09%
- Impurity, % RRT 1.32* ([3]; second study, 25 kGy): 0.07%
- Assay, % COMPOUND ([3]; second study, 40 kGy): 103.7%
- Impurity, % RRT 1.15* ([3]; second study, 40 kGy): 0.06%
- Impurity, % RRT 1.16* ([3]; second study, 40 kGy): 0.12%
- Impurity, % RRT 1.32* ([3]; second study, 40 kGy): 0.10%
- chemical stability in the drug product [4]: acceptable
- chemical stability in the drug product [5]: chemically stable
